# Laboratory results reported in US8394785B2, “Methods for the treatment and amelioration of urticaria” (Jado Technologies GmbH, priority 2005, dated 2013).
# System: human basophils
# Assay: Histamine release assay, anti-IgE induced, human basophils
# Type: cell-based
# Conditions: 10 minutes pre-incubation, read-out: maximal inhibitory effect on anti-IgE induced histamine release
# Method: Human basophils were isolated from whole blood using ficoll paque (D=1.077). Briefly, heparinized whole blood was diluted 1:3 with PBS (w/o Ca and Mg), layered on the ficoll paque solution, and centrifuged for 30 min at 400×g. Low-density particles such as lymphocytes, monocytes, basophils, and platelets were recovered from the interface between the plasma and ficoll solution. The cell suspension from the interface was centrifuged twice at 200×g for 10 min for removal of thrombocytes from the basophil fraction. The number of basophils in the cell suspension was determined by Toluidin blue staining. The yield of basophils was approximately 2%. These pre-purified basophils were used for the histamine release assay. For the cytokine release assays, basophils were further purified using the “Basophil Isolation Kit” for depletion of non-basophils from the interface cell suspension. […] The quantification of histamine levels was achieved using an automated histamine-analyser system (Firm Borgwelt Technik). The wavelength of the excitation was 355-360 nm and the emission wavelength of fluorescence measurement was 450-460 nm. The intensity of fluorescence was directly proportional to the concentration of histamine in the samples. The amount of released histamine was calculated according to the following formula: net histamine release=(release−blank)×(100/complete). […]
smiles,measurement,value
"CCCCCCCCCCCCCCCCOP(=O)([O-])OCC[N+](C)(C)C [Compound 3, 1-hexadecylphosphoryl-choline]",inhibition at 25 µM,10%
